Where two headings read alike, the source gives them in different places. Starred links: 1 amine or outer side, 2 acyl side, 3 side chain; linkers in the order of their positions; H or OH if unused. Non-standard residues stand in square brackets, D forms with d. Residues, ends and D or L forms follow the SMILES beside them. *: point of attachment. dBip = N[C@H](Cc1ccc(-c2ccccc2)cc1)C(=O)O; Oic = O=C(O)[C@@H]1C[C@@H]2CCCC[C@@H]2N1; Phe(4-Cl) = N[C@@H](Cc1ccc(Cl)cc1)C(=O)O; Phe(4-I) = N[C@@H](Cc1ccc(I)cc1)C(=O)O; γGlu = O=C(O)[C@H](CCC(=O)[*:2])N[*:1]; NMeR = CN[C@@H](CCCNC(=N)N)C(=O)O; Tridecanoyl = CCCCCCCCCCCCC(=O)*; hArg = N=C(N)NCCCC[C@H](N)C(=O)O; Cha = N[C@@H](CC1CCCCC1)C(=O)O; NMeL = CN[C@@H](CC(C)C)C(=O)O; β3hL = CC(C)C[C@H](N)CC(=O)O; αMeP = C[C@@]1(C(=O)O)CCCN1; Nle = CCCC[C@H](N)C(=O)O; AEEA = NCCOCCOCC(=O)O
Legend:
[1] = In vitro stability in rat plasma; type: in vitro ADME
How it was run: (§1)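 Stability was followed for 4 hr at 37° C. after spiking peptides (5 μM final) into rat plasma and tissue homogenates. Methanol quench with internal standard preceded high resolution LC-MS.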

[2] = In vitro stability in rat kidney homogenate; type: in vitro ADME; details: rat, tissue homogenate
How it was run: as §1

human APJ receptor = target: T1, human APJ receptor (Homo sapiens, UniProt P35414); experiment: [35S] GTPγS assay, human APJ receptor; type: biochemical
T1 construct: expressed in transfected cells
T1 sequence (P35414 1-380): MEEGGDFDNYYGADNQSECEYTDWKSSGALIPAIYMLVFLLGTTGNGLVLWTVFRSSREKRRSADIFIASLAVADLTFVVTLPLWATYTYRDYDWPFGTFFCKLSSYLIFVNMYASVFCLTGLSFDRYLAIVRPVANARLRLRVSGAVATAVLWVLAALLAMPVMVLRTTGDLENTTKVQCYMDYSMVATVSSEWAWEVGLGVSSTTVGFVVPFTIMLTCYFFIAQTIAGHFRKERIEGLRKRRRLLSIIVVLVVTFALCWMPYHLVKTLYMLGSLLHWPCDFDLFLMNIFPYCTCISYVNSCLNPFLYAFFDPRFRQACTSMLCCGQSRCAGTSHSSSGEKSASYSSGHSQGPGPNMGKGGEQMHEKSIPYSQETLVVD

[3] = In vitro stability in rat liver homogenate; type: in vitro ADME; details: tissue homogenate
How it was run: as §1

rat APJ receptor = target: T2, rat APJ receptor (Rattus norvegicus, UniProt Q9JHG3); experiment: [35S] GTPγS assay, rat APJ receptor; type: biochemical
T2 construct: expressed in transfected cells
T2 sequence (Q9JHG3 1-377): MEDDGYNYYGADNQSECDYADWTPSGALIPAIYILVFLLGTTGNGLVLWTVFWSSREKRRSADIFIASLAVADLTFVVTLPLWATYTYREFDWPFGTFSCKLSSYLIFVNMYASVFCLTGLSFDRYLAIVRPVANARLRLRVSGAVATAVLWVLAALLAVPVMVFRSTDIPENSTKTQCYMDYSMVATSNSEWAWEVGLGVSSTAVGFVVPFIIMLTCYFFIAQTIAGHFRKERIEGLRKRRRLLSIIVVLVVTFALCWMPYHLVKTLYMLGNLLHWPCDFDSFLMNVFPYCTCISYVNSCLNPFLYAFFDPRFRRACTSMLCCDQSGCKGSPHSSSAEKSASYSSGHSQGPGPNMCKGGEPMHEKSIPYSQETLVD
Experimental: The membranes were incubated with modified peptides in the assay buffer. […] Bound [^35S] GTPγS was separated from free radiolabel by filtration. The filter bound radioactivity was determined by liquid scintillation counting.

[4] = Table 16, read-out: EC50 Rat APJ Receptor

Row | Structure (SMILES) | remaining at 4 h, 5 μM [1] | remaining at 4 h, 5 μM [2] | EC50 (human APJ receptor; human APJ receptor) | remaining at 4 h, 5 μM [3] | EC50 (rat APJ receptor; rat APJ receptor, read-out: EC50 Rat APJ Receptor) | EC50 (rat APJ receptor; [4]) | EC50 (human APJ receptor; Table 16)
1 | CCCCCCCCCCCCC(=O)N[C@@H](CCC(=O)NCCOCCOCC(=O)NCCOCCOCC(=O)N[C@@H](CCCC)C(=O)N[C@H](CCCNC(=N)N)C(=O)N[C@@H](CCC(N)=O)C(=O)N[C@@H](CCCCNC(=N)N)C(=O)N1CCC[C@H]1C(=O)N[C@H](CCCNC(=N)N)C(=O)N(C)[C@@H](CC(C)C)C(=O)N[C@@H](CO)C(=O)N[C@@H](Cc1c[nH]cn1)C(=O)N[C@@H](CCCCN)C(=O)NCC(=O)N1[C@H](C(=O)N[C@@H](Cc2ccc(I)cc2)C(=O)N2CCC[C@H]2C(=O)N[C@H](Cc2ccc(-c3ccccc3)cc2)C(=O)O)C[C@@H]2CCCC[C@@H]21)C(=O)O [compound 314] ({Tridecanoyl-γGlu-AEEA-AEEA}-[Nle][dR]Q[hArg]P[dR][NMeL]SHKG[Oic][Phe(4-I)]P[dBip]-OH) | > 90% | 71% | 2.77 nM | 77.5% |  |  | 
2 | CCCCCCCCCCCCC(=O)N[C@@H](CCC(=O)NCCOCCOCC(=O)NCCOCCOCC(=O)N[C@H](CC(=O)N[C@@H](CCCNC(=N)N)C(=O)N1CCC[C@H]1C(=O)N(C)[C@@H](CCCNC(=N)N)C(=O)N[C@@H](CC(C)C)C(=O)N[C@@H](CO)C(=O)N[C@@H](Cc1c[nH]cn1)C(=O)N[C@@H](CCCCN)C(=O)NCC(=O)N1CCC[C@H]1C(=O)N[C@@H](CCCC)C(=O)N1CCC[C@H]1C(=O)N[C@@H](Cc1ccc(Cl)cc1)C(=O)O)CC(C)C)C(=O)O [compound 421] ({Tridecanoyl-γGlu-AEEA-AEEA}-[β3hL]RP[NMeR]LSHKGP[Nle]P[Phe(4-Cl)]-OH) |  |  | 0.0934 nM |  | 0.286 nM |  | 
3 | CCCCCCCCCCCCC(=O)N[C@@H](CCC(=O)NCCOCCOCC(=O)NCCOCCOCC(=O)N[C@@H](CCC(N)=O)C(=O)N[C@@H](CCCNC(=N)N)C(=O)N1CCC[C@H]1C(=O)N1CCC[C@H]1C(=O)N[C@@H](CC(C)C)C(=O)N[C@@H](CO)C(=O)N[C@@H](Cc1c[nH]cn1)C(=O)N[C@@H](CCCCN)C(=O)NCC(=O)N1CCC[C@H]1C(=O)N[C@@H](CCCC)C(=O)N1CCC[C@H]1C(=O)N[C@@H](Cc1ccc(Cl)cc1)C(=O)O)C(=O)O [compound 427] ({Tridecanoyl-γGlu-AEEA-AEEA}-QRPPLSHKGP[Nle]P[Phe(4-Cl)]-OH) |  |  |  |  |  | 0.313 nM | 0.171 nM
4 | CCCCCCCCCCCCC(=O)N[C@@H](CCC(=O)NCCOCCOCC(=O)NCCOCCOCC(=O)N[C@@H](CCC(N)=O)C(=O)N[C@@H](CCC(=O)O)C(=O)N1CCC[C@H]1C(=O)N(C)[C@@H](CCCNC(=N)N)C(=O)N[C@@H](CC(C)C)C(=O)N[C@@H](CO)C(=O)N[C@@H](Cc1c[nH]cn1)C(=O)N[C@@H](CCCCN)C(=O)NCC(=O)N1CCC[C@H]1C(=O)N[C@@H](CCCC)C(=O)N1CCC[C@H]1C(=O)N[C@@H](Cc1ccc(Cl)cc1)C(=O)O)C(=O)O [compound 475] ({Tridecanoyl-γGlu-AEEA-AEEA}-QEP[NMeR]LSHKGP[Nle]P[Phe(4-Cl)]-OH) | 33% |  |  | < 1% |  | 35.8 nM | 10.3 nM
5 | CCCCCCCCCCCCC(=O)N[C@@H](CCC(=O)NCCOCCOCC(=O)NCCOCCOCC(=O)N[C@H](CCCNC(=N)N)C(=O)N[C@H](CCC(N)=O)C(=O)N[C@@H](CCCCNC(=N)N)C(=O)N1CCC[C@H]1C(=O)N[C@@H](CCCCNC(=N)N)C(=O)N[C@@H](CC1CCCCC1)C(=O)N[C@@H](CO)C(=O)N[C@@H](Cc1c[nH]cn1)C(=O)N[C@@H](CCCCN)C(=O)NCC(=O)N1[C@H](C(=O)N[C@@H](CCCC)C(=O)N2CCC[C@H]2C(=O)N[C@@H](Cc2ccc(Cl)cc2)C(=O)O)C[C@@H]2CCCC[C@@H]21)C(=O)O [compound 481] ({Tridecanoyl-γGlu-AEEA-AEEA}-[dR][dQ][hArg]P[hArg][Cha]SHKG[Oic][Nle]P[Phe(4-Cl)]-OH) |  |  |  |  |  | 0.341 nM | 0.177 nM
6 | CCCCCCCCCCCCC(=O)N[C@@H](CCC(=O)NCCOCCOCC(=O)NCCOCCOCC(=O)N[C@H](CCC(N)=O)C(=O)N[C@@H](CCCNC(=N)N)C(=O)N1CCC[C@H]1C(=O)N(C)[C@@H](CCCNC(=N)N)C(=O)N[C@@H](CC1CCCCC1)C(=O)N[C@@H](CO)C(=O)N[C@@H](Cc1c[nH]cn1)C(=O)N[C@@H](CCCCN)C(=O)NCC(=O)N1CCC[C@@]1(C)C(=O)N[C@@H](CCCC)C(=O)N[C@@H](Cc1ccc(Cl)cc1)C(=O)O)C(=O)O [compound 551] ({Tridecanoyl-γGlu-AEEA-AEEA}-[dQ]RP[NMeR][Cha]SHKG[αMeP][Nle][Phe(4-Cl)]-OH) |  |  |  |  |  | 1.15 nM | 0.235 nM
